Measurements reported in US20040259104A1, “Test” (priority 2002, published 2004).
Where “and” joins values, the source holds several entries; their conditions need not be identical. Identical values can stand only once.

Experiments:
Format in all cases: in vivo, human
[1] = Fasting serum insulin after DEX administration (DST); conditions: for Post DEX insulin / Δ insulin: mean
Experimental: (§1) The two dexamethasone suppression tests (DST) were performed as described previously (Huizenga et al, J.Clin.Endocrinol Metab.1998; 83(1): 47-54). In brief, venous blood was obtained in the morning between 8 and 9 am after an overnight fast for serum cortisol and insulin measurements. Participants were instructed to ingest a tablet of 1 mg (and 0.25 mg, respectively) DEX at 11.00 pm. The next morning fasting blood was drawn by venapuncture at the same time as the previous morning. To check for compliance and possible abnormalities in the metabolism of DEX, the DEX concentration was also measured in a radioimmunoassay using antiserum obtained from IgG Corporation (Nashville, Tenn.). Intra- and interassay variations were below 8.5% and 14.2% respectively.
(§2) Serum cortisol concentrations were determined using RIA-kits obtained from Diagnostics Products Corporation (Los Angeles, Calif.). Intra- and interassay variations were below 8.0% and 9.5% respectively. Circulating insulin and cortisol binding globulin concentrations were determined using commercially available ratioimmunoassays (Medgenix Diagnostics, Brussels, Belgium). Intra- and interassay variations were 8.0% and 13.7% respectively. Estradiol, androstenedione and DHEAS concentrations were determined using RIA-kits obtained from Diagnostics Products Corporation. Intra- and interassay variations; estradiol: 7.0% and 8.1% androstenedione: 8.3% and 9.2%, DHEAS: 5.3% and 7.0% SHBG was assayed with an commercially available immunoradiometric assay (Diagnostics Products Corporation; intra- and interassay variations were 3.6% and 6.9% respectively). Testosterone was measured with a non-commercial radioimmunoassay (intra- and interassay variations 3.6% and 6.9%). Commercially available immunoradiometric assays were used for the measurement of IGF-BP1 (Diagnostic System Laboratories Inc.; intra- and interassay variations 4.0% and 6.0%).

[2] = DEX concentration by radioimmunoassay after DST; conditions: mean
Experimental: as §1

[3] = tested on: feedback sensitivity of the HPA-axis; experiment: Dexamethasone suppression test (DST): serum cortisol after DEX; conditions: mean
Text: A total of 202 human subjects participated in the study. Their age varied between 53 and 82 years ([…] with mean ages of 67.7±0.6 and 65.9±0.6 years, respectively). They were living in a suburb of Rotterdam, The Netherlands. These subjects were participants in the Rotterdam Study, a population-based cohort study (7983 subjects) of the determinants of chronic disabling diseases in the elderly and were selected at random. Subjects with acute, psychiatric or endocrine diseases, including diabetes mellitus treated with medication were not invited. Compared to all participants of the Rotterdam study, there were no differences in age and gender distribution and cardiovascular risk factors. The subjects gave their written consent to participate in the study, which received the approval of the Medical Ethics Committee of the Erasmus University Medical School. In order to get more information about the individual variability of the feedback sensitivity of the HPA-axis all 202 subjects were invited for a second DST with a lower dose DEX (0.25 mg) two and a half years later. 149 subjects agreed to participate in this second test (72 men and 77 women).
as §1, §2

[4] = Fasting glucose after DEX administration (DST); conditions: 0.25 mg DEX
Experimental: as §1
Glucose, total cholesterol, HDL-chlesterol and triglycerides were measured using standard laboratory methods. Low density lipoprotein (LDL)-cholesterol was calculated using the following formula: LDL-cholesterol=total cholesterol−((triglycerides/5)+HDL-cholesterol).

[5] = 0.25 mg DEX, ER22/23EK-carriers (n = 13), second examination
[6] = 0.25 mg DEX, non-carriers (n = 136), second examination

SMILES: C[C@@H]1C[C@H]2[C@@H]3CCC4=CC(=O)C=C[C@]4(C)[C@@]3(F)[C@@H](O)C[C@]2(C)[C@@]1(O)C(=O)CO [DEX, dexamethasone]
- Post DEX insulin ([1]; 0.25 mg DEX, ER22/23EK-carriers (n = 10), second examination): 10.0 mU/l
- Post DEX insulin ([1]; 0.25 mg DEX, non-carriers (n = 105), second examination): 14.2 mU/l
- insulin level after DEX administration ([1]; 0.25 mg DEX, total group of 115 subjects, 14.7 before, p=0.02): 13.9±0.50 mU/L
- Post DEX insulin ([1]; 1 mg DEX, ER22/23EK-carriers (n = 15), first examination): 14.4 mU/l
- insulin concentration after DEX administration ([1]; 1 mg DEX, all 182 subjects together, 11.5±5.15 before, p<0.001): 17.2±8.41 mU/L
- Post DEX insulin ([1]; 1 mg DEX, non-carriers (n = 167), first examination): 17.4 mU/l
- Δ insulin ([1]; change in response to 0.25 mg DEX, ER22/23EK-carriers (n = 10)): 0.01 mU/l
- Δ insulin ([1]; change in response to 0.25 mg DEX, non-carriers (n = 105)): −0.92 mU/l
- Δ insulin ([1]; change in response to 1 mg DEX, ER22/23EK-carriers (n = 15)): 5.5±1.3 mU/l and 5.5 mU/l
- Δ insulin ([1]; change in response to 1 mg DEX, non-carriers (n = 167)): 5.7±0.6 mU/l and 5.7 mU/l
- DEX concentration ([2]; morning after 0.25 mg DEX, ER22/23EK-carriers (n = 13)): 2.88 nmol/L
- DEX concentration ([2]; morning after 0.25 mg DEX, non-carriers (n = 136)): 2.85 nmol/L
- DEX concentration ([2]; morning after 1 mg DEX, ER22/23EK-carriers (n = 18)): 6.63 nmol/L
- DEX concentration ([2]; morning after 1 mg DEX, non-carriers (n = 184)): 7.32 nmol/L
- PostDEX cortisol [3, 5]: 267.5 nmol/L
- Δ cortisol [3, 5]: 259.7 nmol/L
- PostDEX cortisol [3, 6]: 259.5 nmol/L
- Δ cortisol [3, 6]: 285.8 nmol/L
- PostDEX cortisol ([3]; 1 mg DEX oral at 11.00 pm, next morning fasting, ER22/23EK-carriers (n = 18), first examination): 57.9 nmol/L
- PostDEX cortisol ([3]; 1 mg DEX oral at 11.00 pm, next morning fasting, non-carriers (n = 184), first examination): 33.3 nmol/L
- Δ cortisol ([3]; cortisol suppression in reaction to 1 mg DEX, ER22/23EK-carriers (n = 18)): 504.9 nmol/L
- Δ cortisol ([3]; cortisol suppression in reaction to 1 mg DEX, non-carriers (n = 184)): 481.4 nmol/L
- glucose concentration after the 0.25 mg DST ([4]; ER22/23EK-carriers): 5.3 ± 0.17 mmol/L
- glucose concentration after DST ([4]; all subjects, 5.6±0.06 before, p=0.004): 5.5 ± 0.05 mmol/L
- glucose concentration after the 0.25 mg DST ([4]; non-carriers): 5.5 ± 0.05 mmol/L
